Experiments:
P388 = conditions: Kaneko et al., J. Med Chem. 1985; cited from earlier work
calf thymus DNA = assay: Thermal denaturation with calf thymus DNA; format: binding; conditions: for ΔTm (elevation of helix melting temperature of CT DNA): 1:5 molar ratio (PBD):(DNA), incubation for 18 h at 37° C.; for Induced ΔTm after Incubation at 37° C. for 0 h / Induced ΔTm after Incubation at 37° C. for 18 h: [PBD]:[DNA] molar ratio 1:5
Procedure: (§1) Biological Activity: In vitro anticancer activity studies were carried out at National Caner Institute (USA) and the thermal denaturation of DNA was performed at School of Life Science, University of Hyderabad.
(§2) Table 1: Thermal denaturation with calf thymus DNA^a, at a [PBD]:[DNA]molar ratio of 1:5^b and in vitro one dose primary anticancer assay^c in the NCI-H460, MCF 7 and SF-268 for Vi, wherein R is H; R1 is H, OH or OAc; and n is 3 to 5.

NCI-H460 (Lung) = assay: In vitro one dose primary anticancer assay (NCI), NCI-H460; format: cell-based, human
Procedure: as §1, §2
(§3) In this assay, for a 1:5 molar ratio of (PBD):(DNA), one of this mixed imine-amide PBD dimer VI, where n is 5, elevates the helix melting temperature of CT DNA remarkably to 17° C. after incubation for 18 h at 37° C.

MCF 7 (Breast) = assay: In vitro one dose primary anticancer assay (NCI), MCF 7; format: cell-based, human
Procedure: as §1, §2, §3

SF-268 (CNS) = assay: In vitro one dose primary anticancer assay (NCI), SF-268; format: cell-based, human
Procedure: as §1, §2, §3

COc1cc2c(cc1OC(C)=O)NC(=O)C1C[C@H](OC(C)=O)CN1C2=O (stereo partly drawn) [(7-methoxy-2-methylcarbonyloxy-5,11-dioxo-(2S)-2,3,5,10,11,11a-hexahydro-1H-pyrrolo[2,1-c][1,4]-benzodiazepine-5,11-dione-8-yl acetate]
in vivo antitumour activity (P388): significant in vivo antitumour activity

COc1cc2c(cc1O)N=CC1CCCN1C2=O (stereo not drawn) [DC-81, reference compound]
ΔTm (elevation of helix melting temperature of CT DNA) (calf thymus DNA): 0.7 °C | Induced ΔTm after Incubation at 37° C. for 0 h (calf thymus DNA): 0.3 C | Induced ΔTm after Incubation at 37° C. for 18 h (calf thymus DNA): 0.7 C

COc1cc2c(cc1OCCCOc1cc3c(cc1OC)C(=O)N1CCC[C@H]1C=N3)N=C[C@@H]1CCCN1C2=O [DSB-120, reference compound]
Induced ΔTm after Incubation at 37° C. for 0 h (calf thymus DNA): 10.2 C

COc1cc2c(cc1OCCCOc1cc3c(cc1OC)NC(=O)[C@H]1CCCN1C3=O)N=C[C@@H]1CCCN1C2=O [VI (n is 3)]
Induced ΔTm after Incubation at 37° C. for 0 h (calf thymus DNA): 6.5 C | Induced ΔTm after Incubation at 37° C. for 18 h (calf thymus DNA): 7.0 C | Growth Percentage (Lung) NCI-H460 (NCI-H460 (Lung)): 4 | Growth Percentage (Breast) MCF 7 (MCF 7 (Breast)): 10 | Growth Percentage (CNS) SF-268 (SF-268 (CNS)): 11

COc1cc2c(cc1OCCCCOc1cc3c(cc1OC)NC(=O)[C@H]1CCCN1C3=O)N=C[C@@H]1CCCN1C2=O [VI (n is 4)]
Induced ΔTm after Incubation at 37° C. for 0 h (calf thymus DNA): 5.0 C | Induced ΔTm after Incubation at 37° C. for 18 h (calf thymus DNA): 8.5 C | Growth Percentage (Lung) NCI-H460 (NCI-H460 (Lung)): −16 | Growth Percentage (Breast) MCF 7 (MCF 7 (Breast)): −41 | Growth Percentage (CNS) SF-268 (SF-268 (CNS)): −81

COc1cc2c(cc1OCCCCCOc1cc3c(cc1OC)NC(=O)[C@H]1CCCN1C3=O)N=C[C@@H]1CCCN1C2=O [VI (n is 5), 8-methoxy-7-3-[7-methoxy-5-oxo-(11aS)-2,3,4,11a-tetrahydro-1H-pyrrolo[2,1-c][1,4]-benzodiazepine-8-yloxy]pentyloxy-(11aR)-2,3,5,10,11a hexahydro-1H -pyrrolo[2,1-c][1,4]benzodiazepine-5,11-dione]
ΔTm (elevation of helix melting temperature of CT DNA) (calf thymus DNA): 17 °C | Induced ΔTm after Incubation at 37° C. for 0 h (calf thymus DNA): 14.0 C | Induced ΔTm after Incubation at 37° C. for 18 h (calf thymus DNA): 17.0 C | Growth Percentage (Lung) NCI-H460 (NCI-H460 (Lung)): −39 | Growth Percentage (Breast) MCF 7 (MCF 7 (Breast)): 7 | Growth Percentage (CNS) SF-268 (SF-268 (CNS)): −21
